Data reported in US9902716B2, “Fluorinated benzofuranyl-pyrimidine derivatives containing a sulfone group” (Bayer Pharma Aktiengesellschaft, priority 2014, dated 2018).

Columns and labels:
CDK9/CycT1 = target: T1, CDK9/CycT1 (Homo sapiens, UniProt P50750); test: CDK9/CycT1 kinase assay (Method 1a, TR-FRET); type: biochemical; settings: 10 μM ATP; for IC50: Method 1a; for Selectivity CDK9 over CDK2: IC50 (CDK2)/IC50 (CDK9): Methods 1a and 2a
T1 construct: Recombinant full-length His-tagged human CDK9 and CycT1; His; purchased Invitrogen PV4131; host or cells: insect cells
Description: 1a. CDK9/CycT1 Kinase Assay:
CDK9/CycT1-inhibitory activity of compounds of the present invention was quantified employing the CDK9/CycT1 TR-FRET assay as described in the following paragraphs:
Recombinant full-length His-tagged human CDK9 and CycT1, expressed in insect cells and purified by Ni-NTA affinity chromatography, were purchased from Invitrogen (Cat. No PV4131). As substrate for the kinase reaction biotinylated peptide biotin-Ttds-YISPLKSPYKISEG (C-terminus in amid form) was used which can be purchased e.g. form the company JERINI Peptide Technologies (Berlin, Germany). For the assay 50 nl of a 100 fold concentrated solution of the test compound in DMSO was pipetted into a black low volume 384 well microtiter plate (Greiner Bio-One, Frickenhausen, Germany), 2 μl of a solution of CDK9/CycT1 in aqueous assay buffer [50 mM Tris/HCl pH 8.0, 10 mM MgCl2, 1.0 mM dithiothreitol, 0.1 mM sodium ortho-vanadate, 0.01% (v/v) Nonidet-P40 (Sigma)] were added and the mixture was incubated for 15 min at 22° C. to allow pre-binding of the test compounds to the enzyme before the start of the kinase reaction. Then the kinase reaction was started by the addition of 3 μl of a solution of adenosine-tri-phosphate (ATP, 16.7 μM=> final conc. in the 5 μl assay volume is 10 μM) and substrate (1.67 μM=> final conc. in the 5 μl assay volume is 1 μM) in assay buffer and the resulting mixture was incubated for a reaction time of 25 min at 22° C. The concentration of CDK9/CycT1 was adjusted depending of the activity of the enzyme lot and was chosen appropriate to have the assay in the linear range, typical concentrations were in the range of 1 μg/mL. The reaction was stopped by the addition of 5 μl of a solution of TR-FRET detection reagents (0.2 μM streptavidine-XL665 [Cisbio Bioassays, Codolet, France] and 1 nM anti-RB(pSer807/pSer811)-antibody from BD Pharmingen [#558389] and 1.2 nM LANCE EU-W1024 labeled anti-mouse IgG antibody [Perkin-Elmer, product no. AD0077]) in an aqueous EDTA-solution (100 mM EDTA, 0.2% (w/v) bovine serum albumin in 100 mM HEPES/NaOH pH 7.0).
The resulting mixture was incubated 1 h at 22° C. to allow the formation of complex between the phosphorylated biotinylated peptide and the detection reagents. Subsequently the amount of phosphorylated substrate was evaluated by measurement of the resonance energy transfer from the Euchelate to the streptavidine-XL. Therefore, the fluorescence emissions at 620 nm and 665 nm after excitation at 350 nm was measured in a HTRF reader, e.g. a Rubystar (BMG Labtechnologies, Offenburg, Germany) or a Viewlux (Perkin-Elmer). The ratio of the emissions at 665 nm and at […] was taken as the measure for the amount of phosphorylated substrate. The data were normalised (enzyme reaction without inhibitor=0% inhibition, all other assay components but no enzyme=100% inhibition).

HeLa cells = test: Proliferation assay HeLa (Method 3, crystal violet); type: cell-based; settings: Homo sapiens, 96 h, 4 days incubation, read-out: Inhibition of HeLa cell proliferation IC50
Experimental: (§1) Cultivated tumour cells (HeLa, human cervical tumour cells, ATCC CCL-2; NCI-H460, human non-small cell lung carcinoma cells, ATCC HTB-177; A2780, human ovarian carcinoma cells, ECACC #93112519; DU 145, hormone-independent human prostate carcinoma cells, ATCC HTB-81; HeLa-MaTu-ADR, multidrug-resistant human cervical carcinoma cells, EPO-GmbH Berlin; Caco-2, human colorectal carcinoma cells, ATCC HTB-37; B16F10, mouse melanoma cells, ATCC CRL-6475) were plated at a density of 5,000 cells/well (DU145, HeLa-MaTu-ADR), 3,000 cells/well (NCI-H460, HeLa), 2,500 cells/well (A2780), 1,500 cells/well (Caco-2), or 1,000 cells/well (B16F10) in a 96-well multititer plate in 200 μL of their respective growth medium supplemented 10% fetal calf serum. After 24 hours, the cells of one plate (zero-point plate) were stained with crystal violet (see below), while the medium of the other plates was replaced by fresh culture medium (200 μl), to which the test substances were added in various concentrations (0 μM, as well as in the range of 0.001-10 μM; the final concentration of the solvent dimethyl sulfoxide was 0.5%). The cells were incubated for 4 days in the presence of test substances. Cell proliferation was determined by staining the cells with crystal violet: the cells were fixed by adding 20 μl/measuring point of an 11% glutaric aldehyde solution for 15 minutes at room temperature. After three washing cycles of the fixed cells with water, the plates were dried at room temperature. The cells were stained by adding 100 μl/measuring point of a 0.1% crystal violet solution (pH 3.0). After three washing cycles of the stained cells with water, the plates were dried at room temperature. The dye was dissolved by adding 100 μl/measuring point of a 10% acetic acid solution. The extinction was determined by photometry at a wavelength of 595 nm. The change of cell number, in percent, was calculated by normalization of the measured values to the extinction values of the zero-point plate (=0%) and the extinction of the untreated (0 μm) cells (=100%). The IC50 values (inhibitory concentration at 50% of maximal effect) were determined by means of a 4 parameter fit.

HeLa-MaTu-ADR cells = test: Proliferation assay HeLa-MaTu-ADR (Method 3, crystal violet); type: cell-based; settings: Homo sapiens, 96 h, 4 days incubation, read-out: Inhibition of HeLa-MaTu-ADR cell proliferation IC50
Experimental: as §1

DU145 cells = test: Proliferation assay DU145 (Method 3, crystal violet); type: cell-based; settings: Homo sapiens, DU-145, 96 h; DU145, 4 days incubation; read-out: Inhibition of DU145 cell proliferation IC50
Experimental: as §1, with “The IC50 values (inhibitory concentration at 50% of maximal effect) were determined by means of a 4 parameter fit.” left out

T1 sequence (P50750 whole entry): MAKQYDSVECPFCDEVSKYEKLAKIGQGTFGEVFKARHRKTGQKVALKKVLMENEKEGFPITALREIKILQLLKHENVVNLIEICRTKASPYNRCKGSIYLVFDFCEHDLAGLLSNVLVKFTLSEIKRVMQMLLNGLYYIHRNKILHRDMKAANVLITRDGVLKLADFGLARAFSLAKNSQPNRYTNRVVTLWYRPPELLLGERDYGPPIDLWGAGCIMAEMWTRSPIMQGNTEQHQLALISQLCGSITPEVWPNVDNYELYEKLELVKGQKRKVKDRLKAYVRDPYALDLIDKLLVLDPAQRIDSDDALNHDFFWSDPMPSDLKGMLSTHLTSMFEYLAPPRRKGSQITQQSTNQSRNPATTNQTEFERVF
T1 sequence (O60563 whole entry partner): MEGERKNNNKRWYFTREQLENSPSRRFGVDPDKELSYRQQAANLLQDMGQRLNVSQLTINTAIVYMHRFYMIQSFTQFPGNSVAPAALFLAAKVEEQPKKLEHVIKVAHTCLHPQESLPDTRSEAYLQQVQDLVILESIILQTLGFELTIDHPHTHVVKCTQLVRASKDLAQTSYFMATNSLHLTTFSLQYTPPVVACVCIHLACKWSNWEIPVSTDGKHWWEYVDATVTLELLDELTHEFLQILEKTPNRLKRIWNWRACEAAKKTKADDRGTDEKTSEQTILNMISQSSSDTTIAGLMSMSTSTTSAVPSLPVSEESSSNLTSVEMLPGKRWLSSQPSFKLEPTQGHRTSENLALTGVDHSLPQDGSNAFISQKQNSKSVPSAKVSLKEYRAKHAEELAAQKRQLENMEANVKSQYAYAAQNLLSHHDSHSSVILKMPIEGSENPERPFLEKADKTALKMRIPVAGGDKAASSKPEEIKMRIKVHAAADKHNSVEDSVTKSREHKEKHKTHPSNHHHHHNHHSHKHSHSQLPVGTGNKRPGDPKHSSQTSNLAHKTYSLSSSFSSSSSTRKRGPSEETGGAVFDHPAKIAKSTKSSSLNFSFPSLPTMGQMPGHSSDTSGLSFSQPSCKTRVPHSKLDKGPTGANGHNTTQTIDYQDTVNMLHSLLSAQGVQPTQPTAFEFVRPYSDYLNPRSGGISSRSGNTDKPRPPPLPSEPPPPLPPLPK

IC50 (CDK9/CycT1) | Selectivity CDK9 over CDK2: IC50 (CDK2)/IC50 (CDK9) (CDK9/CycT1) | IC50 (HeLa cells) | IC50 (HeLa-MaTu-ADR cells) | IC50 (DU145 cells) | Structure (SMILES)
4 nM | 44 | 270 nM | 290 nM | 360 nM | CS(=O)(=O)Cc1cccc(Nc2ncc(F)c(-c3ccc(F)c4ccoc34)n2)c1 [Example 1, 5-Fluoro-4-(4-fluoro-1-benzofuran-7-yl)-N-{3-[(methylsulfonyl)methyl]-phenyl}pyrimidin-2-amine]
3 nM | 37 | 335 nM | 100 nM | – | CCS(=O)(=O)Cc1cccc(Nc2ncc(F)c(-c3ccc(F)c4ccoc34)n2)c1 [Example 2, N-{3-[(Ethylsulfonyl)methyl]phenyl}-5-fluoro-4-(4-fluoro-1-benzofuran-7-yl)pyrimidin-2-amine]
2 nM | – | 100 nM | 239 nM | 298 nM | CS(=O)(=O)Cc1cc(F)cc(Nc2ncc(F)c(-c3ccc(F)c4ccoc34)n2)c1 [Example 3]
2 nM | 29 | 100 nM | 243 nM | 237 nM | Cc1cc(CS(C)(=O)=O)cc(Nc2ncc(F)c(-c3ccc(F)c4ccoc34)n2)c1 [Example 4, 5-Fluoro-4-(4-fluoro-1-benzofuran-7-yl)-N-{3-methyl-5-[(methylsulfonyl)methyl]-phenyl}pyrimidin-2-amine]
